Patent publication US20260250318A1, “COMPOSITIONS AND METHODS FOR CROSSING THE BLOOD BRAIN BARRIER” (VOYAGER THERAPEUTICS, INC., priority 2022, published 2026)

System: brains, heart, liver, muscle, and DRG of the NHPs
Test: Maturation of TTM-001 and TTM-002 capsids, NGS enrichment in NHP tissues
Format: in vivo
Details: NHP DRG; NGS; relative to AAV9 control
Procedure, shortened: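 Variants carry mutations within and flanking the loop IV peptide insert: positions 450–466 were triplet-randomized, while positions 449–466 received low-frequency point mutations. The combined pool went into two NHPs, and each peptide was scored by NGS enrichment ratio against AAV9.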

Sequence	Fold Enrichment relative to AAV9, DRG (NHP)
KTINSPRSPHSKAQNQQT	0.000 fold

Same assay, conditions: NHP brain; NGS; relative to AAV9 control

Sequence	Fold Enrichment relative to AAV9, Brain (NHP)
KTINSPRSPHSKAQNQQT	0.000 fold

Same assay, conditions: NHP heart; NGS; relative to AAV9 control

Sequence	Fold Enrichment relative to AAV9, Heart (NHP)
KTINSPRSPHSKAQNQQT	0.000 fold

Same assay, conditions: NHP liver DNA; NGS; relative to AAV9 control

Sequence	Fold Enrichment relative to AAV9, Liver DNA (NHP)
KTINSPRSPHSKAQNQQT	1.554 fold

Same assay, conditions: NHP liver RNA; NGS; TTM-001 and TTM-002 matured AAV capsid variants; relative to AAV9 control

Sequence	Fold Enrichment relative to AAV9, Liver RNA (NHP)
KTINSPRSPHSKAQNQQT	27.240 fold

Same assay, conditions: NHP muscle; NGS; relative to AAV9 control

Sequence	Fold Enrichment relative to AAV9, Muscle (NHP)
KTINSPRSPHSKAQNQQT	0.000 fold

System: brain
Test: Maturation of TTM-001 capsid, NGS enrichment in brain of CD-1 Outbred mice
Format: in vivo
Details: NGS fold-enrichment of TTM-001 matured AAV capsid variants in the brain of CD-1 Outbred mice; intravenous 1.0×10^12 VG/dose; 14 days in life; RNA; relative to non-matured TTM-001 control
Procedure, shortened: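 Brain enrichment read by NGS after RNA extraction and RT-PCR, expressed as fold ratio over the matching parental capsid (TTM-001 or TTM-002). Libraries, mutated around loop IV positions 449/450–466, were injected intravenously (tail vein, 1.0×10^12 VG/dose) into three female CD-1 mice; brains harvested at 14 days.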

Sequence	Fold enrichment over TTM-001
KTINSPRSPHSKAQNQQT	2.264 fold
KTINGSGSPHSKRGLQQT	2.402 fold
KTINGSGSPHSRLRNQQT	3.851 fold
KTINGSGSPHSKFLFQQT	3.173 fold
KTINGSGSPHSLWLNQQT	4.412 fold
KTINGSGSPHSKAQRSRT	3.585 fold
KTINGSGSPHSLCSNQQT	3.413 fold
KTINGSGSPHPFLQNQQT	2.916 fold
KTINGSGSPHLVCQNQQT	2.493 fold
KTINGSGSPHSFLVNQQT	2.624 fold
KTINGSRSPHRSAQNQQT (peptide inserted in AAV capsid)	2.536 fold
KTINGHLSPHRKAQNQQT	2.851 fold
KTINGALSPHRKAQNQQT	2.203 fold
KTINGSGSPHSKAQPSKT	2.339 fold
KTINGSGSPHSKRSIQQT	2.063 fold
KTINGSGSPHVTWQNQQT	2.281 fold
KTINGSGSPHFLLQNQQT	2.758 fold
KYLLGSGSPHSKAQNQQT (peptide inserted in AAV capsid)	2.253 fold
KTINGSGSPHCSAQNQQT	2.339 fold
KTINGSGSPHSKAQLILT	2.358 fold
KTINGSGSPHSKIRLQQT	2.348 fold
KTINGSGSPHSKAQTMRT	2.453 fold

Sequence	Fold enrichment over TTM-001
KTINGMRSPHVKAQNQQT	2.937 fold
KTINGSGSPHSKPWLQQT	2.138 fold
KTINGSGSPHSKAQLRKT	2.689 fold
KTRKSSGSPHSKAQNQQT	2.065 fold
KTINGSGSPHSKASRGQT	2.182 fold
KTINGSGSPHSWGSNQQT	2.473 fold
KTINGSGSPHCTLQNQQT	2.497 fold
KTINGSGSPHSKASCRQT	2.840 fold
KTINGNVSPHRKAQNQQT	2.043 fold
KTINGSGSPHCLSQNQQT	2.114 fold
KTINGSGSPHLFRQNQQT	2.324 fold
KTINGSGSPHSKARMGQT	2.564 fold
KTINGSGSPHSKMRAQQT	3.382 fold
KTINGSRSPHRLAQNQQT (peptide inserted in AAV capsid)	2.698 fold
KTINGSLSPHSWAQNQQT	2.885 fold
KTINGSGSPHSKAQLGRT	2.069 fold
KTINGSGSPHSKLMRQQT	2.056 fold
KTINGSGSPHSKAVRQQT	2.052 fold
KTINGSGSPHSKRIVQQT (KTINGSGSPHSKRLVQQT)	2.151 fold
KTINGSGSPHSKAYLRQT	3.356 fold
KTINGSGSPHSKCLLQQT	3.374 fold
KTINGSGSPHSKRTSQQT	2.857 fold
